Where no end group is shown, it is not given here.
What was measured:
Assay type in all cases: in vivo, mouse
Wild-type mice (C57BL/6) [1] = experiment: Histamine-induced scratching (bouts of scratching after intradermal histamine); settings: intradermal histamine 100 μg in 10 μl, scratching bouts over 30 minutes, vs histamine alone/untreated
Excerpt: (§1) All experiments using animals followed NIH guidelines and were approved by the National Institute of Dental and Craniofacial ACUC. The targeted JM8A3 ES-cell clone A04 with disruption of the Nppb gene was obtained from Mouse Biology Program (MBP), UC Davis and was used to generate chimeric mice. Chimeras were crossed with C57BL/6 mice and heterozygous offspring were mated to generate paired knockouts and controls. Transgenic (Tg) (gastrin releasing peptide (GRP)-enhanced green fluorescent protein (EGFP)) animals (Gong et al., Nature, 425:917 (2003)) were employed to localize expression of GRP. Male C57BL/6 (8-14 weeks) mice were used for selective toxin ablation and GRP-antagonist itch experiments. Ablation of Npra and GRP-receptor-expressing spinal cord interneurons was accomplished by intrathecal (segment L3/4) injection of Nppb-saporin (5 μg in 10 μl; Advanced targeting Systems, San Diego, Calif.) and GRP-saporin (2.5 μg) respectively. Experiments were initiated two weeks after toxin injection.
(§2) Itch inducing substances (see Table 1) were injected intradermally into the shoulder of mice and numbers of scratching bouts assessed over 30 minutes. […] Table 1 also indicates the receptors or mechanisms believed to be activated by the various compounds in the itch response pathway.
(§3) Pretreatment with GRP antagonist deamino-Phe19,D-Ala24,D-Pro26-D-Phe27-GRP (Yegen et al., Regulatory Peptides, 61:175 (1996)) (1 nM in 10 μl) was used to block GRP-receptor.
Wild-type mice (C57BL/6) were administered histamine alone, a combination of histamine and a GRP antagonist, or a combination of histamine and anantin. […] to another receptor in the itch pathway and was used as a control. Bouts of scratching were counted.

[2] = test system: neurons in the dorsal root ganglion (DRG) and superficial dorsal horn (sDH); experiment: Immediate early gene induction (Egr1 in DRG, cFos in sDH) by ISH
Procedure: To gain additional evidence that systemic Nppb activates a central itch pathway, the pattern of cellular activation of neurons in the dorsal root ganglion (DRG) and superficial dorsal horn (sDH) was compared by analyzing induction of immediate early gene expression. The skin was stimulated by pruritogen and injections of noxious compounds and the robust induction of immediate early genes, Egr1 and cFos (in the DRG and sDH respectively) was evaluated. Intradermal injection of chloroquine was utilized to excite MrgprA3 peripheral DRG neurons. […] The number of positive Egr-1-positive cells correlated well with the previously reported numbers of MrgprA3-expressing receptor neurons in DRG. […] Therefore, the initial and later cellular stages of the pruriceptive neural pathway could be reliably monitored biochemically and anatomically and itch signaling could be distinguished from that elicited by the noxious agent formalin.
It was reasoned that if ivNppb was directly activating centrally, then induction of immediate early gene expression would be seen in sDH-neurons and not DRG neurons. […] As expected from the generalized scratching responses evoked by ivNppb, in both hemispheres of the spinal cord and along the entire length of the spinal cord, cFos-activated neurons could be detected. Furthermore, also consistent with the itch-behavioral result, the profile of cFos-activated neurons in the sDH was similar to that generated by epidermal injection of chloroquine.

mice [3] = experiment: Scratching after lumbar intrathecal injection of Nppb
Excerpt: as §1, §3
(§4) How Nppb induces this stereotyped scratch response was investigated. It was hypothesized that because this peptide is prominently expressed in somatosensory neurons, the most plausible explanation for its role would be if it acted as a specific itch-related neuromodulator (or neurotransmitter) in the spinal cord. […] Intrathecal injection of Nppb into Nppb^−/− mice also led to an equivalent phenotype (FIG. 1E). No significant differences in response between genotypes were found (Student's t-test). Loss of Nppb in sensory afferents was thus responsible for the pruriceptive deficits seen in mutant mice. Without being bound to a particular theory or mechanism, it is believed that Nppb-expression delineates the subset of somatosensory neurons that detect pruritic agents and that central release of Nppb from these neurons is necessary for the itch response.

Wild-type mice (C57BL/6) [4] = experiment: Scratching after intravenous administration of natriuretic peptides (ivNppb)
Procedure: Elevated blood Nppb is found in kidney disalysis patients. Accordingly, the effect of elevated blood Nppb on itching in mice was evaluated. Wild-type mice (C57BL/6) were intravenously administered Nppb and were untreated or treated with GRP-antagonist or Nppb saporin. The bouts of scratching were counted.
Nppb deficient or wild-type (C57BL/6) mice were intravenously (i.v.) administered Nppb, Nppa, or Nppc, and the bouts of scratches were measured.
To mimic the high concentration of Nppb found in renal itch patients, mice were i.v. administered Nppb (via tail vein injection). […] Approximately ten minutes after administration of Nppb, mice began to persistently scratch their flank, face, hind quarters and abdomens. This behavior slowly diminished and almost completely ceased approximately 1 hour after injection. The induction of scratching was dose dependent, with a 1.2 μg/kg dose producing saturating behavioral responses. In all subsequent experiments, a dose of 1.2 μg/kg Nppb (abbreviated as “ivNppb”) was used, and bouts of scratching were counted over a period of 1 hour.
Npra neurons themselves express GRP and are thought to release GRP which, in turn, activates GRPR-cells.

mice [5] = experiment: Scratching after intradermal injection of pruritogens; settings: control (wild-type) animals; doses of Table 1
Procedure: as §2
Intradermal injections were performed. The number of scratching bouts for substances that directly activate pruriceptors was recorded. The number of scratching bouts after injection with compound 48/80, which causes itch via an indirect route (McNeil et al., Neuroscience Bulletin, 28:100 (2012)), was also recorded. All of these agents (Table 1) reliably triggered multiple bouts of scratching in control animals (FIG. 1D), but Nppb^−/− mice were almost completely insensitive to the full range of pruritic substances tested (FIG. 1D).

mice [6] = experiment: Scratching after intrathecal injection of GRP
Excerpt: as §1, §3, §4

[7] = lumbar 4-5 segment intrathecal injection

anantin was tested, and the “bouts of scratching after histamine injection, effect of treatment” value (from here on “bouts of scratching”) (Wild-type mice (C57BL/6) [1]) was “attenuated histamine-induced itch” and the “bouts of scratching” value (Wild-type mice (C57BL/6) [1]; listed as Anantin) was “statistically different”.
`C=O` [formalin] was tested, and the “Egr1 expression in DRG neurons” value [2] was “induced Egr-1 expression in a far larger number” and the “cFos induction in superficial dorsal horn (sDH) neurons” value (from here on “cFos induction”) [2] was “induced cFos expression”.
In the case of Nppb, the “scratching induced by intrathecal injection of the peptide” value (mice [3]; Nppb 5 μg in 10 μl, lumbar 4-5 segment, control and Nppb−/− mice) is reported as “induced repeated bouts of scratching”, the “onset of pruriceptive response after intrathecal Nppb” value (mice [3]; [7]) is reported as about 5 min and the “scratching/itch induced by i.v. administration of the peptide” value (“scratching/itch induced” for short) (Wild-type mice (C57BL/6) [4]; i.v. tail vein) is reported as “robust whole body scratching behavior”. The “time after i.v. administration at which persistent scratching began” value (Wild-type mice (C57BL/6) [4]; i.v. tail vein) was “Approximately ten”, the “time after i.v. injection at which scratching almost completely ceased” value (Wild-type mice (C57BL/6) [4]; i.v. tail vein) was “approximately 1 hour” and the “dose producing saturating behavioral responses (scratching)” value (Wild-type mice (C57BL/6) [4]; i.v., dose dependent) was 1.2 µg/kg. The “Egr1 expression in DRG neurons” value [2] was “did not induce expression of Egr1” and the “cFos induction” value [2] was “caused cFos induction”.
“Nppc: C-type natriuretic peptide, selective agonist for natriuretic peptide receptor Nprb (GLSKGCFGLKLDRIGSMSGLGC; ends and bridges not checked; cysteine pairing not given here; UniProt Q61839 105-126, looked up)” was tested, and the “scratching/itch induced” value (Wild-type mice (C57BL/6) [4]; i.v. (tail vein), listed as C-type natriuretic peptide) was “produced no observable reaction” and the “scratching/itch induced” value (Wild-type mice (C57BL/6) [4]; i.v. tail vein) was “did not induce significant itch”.
For `CCN(CC)CCCC(C)Nc1ccnc2cc(Cl)ccc12` (stereo not drawn) [chloroquine], the “Egr1 expression in DRG neurons” value [2] was “induced Egr1 expression”, the “cFos induction” value [2] was “induced cFos expression” and the “scratching / itch-behavior after intradermal injection of pruritic agent” value (mice [5]) was “triggered itch-behavior”.
“GRP: gastrin releasing peptide (APVSTGAGGGTVLAKMYPRGSHWAVGHLM; ends and bridges not checked; UniProt Q8R1I2 24-52, looked up)” was tested, and the “itch responses induced by intrathecal injection of the peptide” value (mice [6]; GRP 1 nM in 10 μl, mutant and control animals) was “triggered itch responses” and the “onset of pruriceptive response after intrathecal GRP” value (mice [6]; [7]) was about 5 min.
With “deamino-Phe19,D-Ala24,D-Pro26-D-Phe27-GRP [GRP antagonist]” the “bouts of scratching” value (Wild-type mice (C57BL/6) [1]) was “attenuated scratching”, the “bouts of scratching” value (Wild-type mice (C57BL/6) [1]; listed as GRP-antagonist) was “statistically different” and the “scratching induced by lumbar intrathecal injection of Nppb, effect of pretreatment” value (mice [3]; Nppb 5 μg in 10 μl intrathecal, vs untreated mice) was “strongly attenuated”. For the same compound, the “scratching induced by intrathecal GRP, effect of pretreatment” value (mice [6]; GRP 1 nM in 10 μl intrathecal, vs untreated mice) was “attenuated scratching” and the “i.v. Nppb-induced itch, effect of pretreatment” value (Wild-type mice (C57BL/6) [4]; i.v. Nppb, bouts of scratching, vs untreated) was “blocked”.

From US10583173B2, “Methods of treating or preventing pruritis by blocking natriuretic polypeptide b” (priority 2013, dated 2020)
